Where “and” joins values, the source holds several entries; their conditions need not be identical. Equal entries are not always repeated.
What was measured:
Conditions in all cases: incubation time: 72 h
[1] = tested on: CAL-85-1; assay: normalised viability (% of control), CellTiter-Blue; higher = more viable cells (about 100 = DMSO control)
Method: (§1)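 DSRT, CellTiter-Blue viability, 72 h incubation. Signal is normalised to DMSO and benzethonium chloride controls. Value is the normalised response at dose 6.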

[2] = tested on: CAL-148; assay: as above
Method: as §1

[3] = tested on: DU-4475; assay: as above
Method: as §1

[4] = tested on: MDA-MB-453; assay: as above
Method: as §1

[5] = tested on: HDQ-P1; assay: as above
Method: as §1

[6] = tested on: CAL-51; assay: as above
Method: as §1

[7] = tested on: CAL-85-1; assay: as above; remark: listed apart in the source
Method: (§2)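 DSRT, CellTiter-Blue viability, 72 h incubation. Signal is normalised to DMSO and benzethonium chloride controls. Value is the normalised response at dose 9.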

[8] = tested on: CAL-148; assay: as above; remark: listed apart in the source
Method: as §2

[9] = tested on: DU-4475; assay: as above; remark: listed apart in the source
Method: as §2

[10] = tested on: MDA-MB-453; assay: as above; remark: listed apart in the source
Method: as §2

[11] = tested on: HDQ-P1; assay: as above; remark: listed apart in the source
Method: as §2

[12] = tested on: CAL-51; assay: as above; remark: listed apart in the source
Method: as §2

[13] = tested on: CAL-120; assay: normalised viability (% of control), CellTiter-Blue; higher = more viable cells (100 = DMSO, 0 = benzethonium chloride kill control)
Method: (§3)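 DSRT, CellTiter-Blue viability, 72 h incubation. Signal is normalised to DMSO and benzethonium chloride controls. Value is the normalised response at dose 1.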

[14] = tested on: CAL-85-1; assay: as above
Method: as §3

[15] = tested on: HCC1599; assay: as above
Method: as §3

[16] = tested on: CAL-148; assay: as above
Method: as §3

[17] = tested on: HCC1143; assay: as above
Method: as §3

[18] = tested on: DU-4475; assay: as above
Method: as §3

[19] = tested on: MFM-223; assay: as above
Method: as §3

[20] = tested on: SK-BR-3; assay: as above
Method: as §3

[21] = tested on: BT-549; assay: as above
Method: as §3

[22] = tested on: HCC1937; assay: as above
Method: as §3

[23] = tested on: MDA-MB-231; assay: as above
Method: as §3

[24] = tested on: Hs578T; assay: as above
Method: as §3

[25] = tested on: MDA-MB-468; assay: as above
Method: as §3

[26] = tested on: MDA-MB-436; assay: as above
Method: as §3

[27] = tested on: MDA-MB-453; assay: as above
Method: as §3

[28] = tested on: HDQ-P1; assay: as above
Method: as §3

[29] = tested on: CAL-51; assay: as above
Method: as §3

[30] = tested on: CAL-120; assay: normalised response (% of control), CellTiter-Glo; higher = more viable cells (100 = DMSO, 0 = benzethonium chloride kill control)
Summary of the method: (§4)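 CellTox Green fluorescence (485/520 nm) and, after 10 min at room temperature, CellTiter-Glo luminescence were read from breast cancer cell lines incubated 72 h in 384-well plates. Cells were seeded as 20 µl suspension onto compound at 5 concentrations in 10-fold steps over a 10,000-fold range chosen per compound. Each plate was normalised to 0.1 % DMSO (100) and a positive kill control (0). Values are normalised signals, one per concentration.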

[31] = tested on: BT-474; assay: as above
Summary of the method: as §4

[32] = tested on: CAL-85-1; assay: as above
Summary of the method: as §4

[33] = tested on: HCC1599; assay: as above
Summary of the method: as §4

[34] = tested on: CAL-148; assay: as above
Summary of the method: as §4

[35] = tested on: HCC1143; assay: as above
Summary of the method: as §4

[36] = tested on: DU-4475; assay: as above
Summary of the method: as §4

[37] = tested on: MFM-223; assay: as above
Summary of the method: as §4

[38] = tested on: SK-BR-3; assay: as above
Summary of the method: as §4

[39] = tested on: MCF-10A; assay: as above
Summary of the method: as §4

[40] = tested on: BT-549; assay: as above
Summary of the method: as §4

[41] = tested on: HCC1937; assay: as above
Summary of the method: as §4

[42] = tested on: MDA-MB-231; assay: as above
Summary of the method: as §4

[43] = tested on: Hs578T; assay: as above
Summary of the method: as §4

[44] = tested on: MDA-MB-468; assay: as above
Summary of the method: as §4

[45] = tested on: MDA-MB-436; assay: as above
Summary of the method: as §4

[46] = tested on: MDA-MB-453; assay: as above
Summary of the method: as §4

[47] = tested on: HDQ-P1; assay: as above
Summary of the method: as §4

[48] = tested on: CAL-51; assay: as above
Summary of the method: as §4

Compound `CNC(=O)c1ccccc1Sc1ccc2c(/C=C/c3ccccn3)n[nH]c2c1` [Axitinib] (300 nM) has a normalised viability [1] of 83.6%, a normalised viability [2] of 94% and a normalised viability [3] of 103%. It also gave a normalised viability [4] of 96.8%, a normalised viability [5] of 40.1% and a normalised viability [6] of 96.1%.

`CC(C)C[C@H](NC(=O)[C@@H](COC(C)(C)C)NC(=O)[C@H](Cc1ccc(O)cc1)NC(=O)[C@H](CO)NC(=O)[C@H](Cc1c[nH]c2ccccc12)NC(=O)[C@H](Cc1cnc[nH]1)NC(=O)[C@@H]1CCC(=O)N1)C(=O)N[C@@H](CCCNC(=N)N)C(=O)N1CCC[C@H]1C(=O)NNC(N)=O` [Goserelin] (300 nM) was tested, and the normalised viability [1] was 99.7%, the normalised viability [2] was 104% and the normalised viability [3] was 106%. It also gave a normalised viability [4] of 106%, a normalised viability [5] of 91.4% and a normalised viability [6] of 108%.

In the case of `Nc1ccn([C@@H]2O[C@H](CO)[C@@H](O)C2(F)F)c(=O)n1` [Gemcitabine] (30 nM), the normalised viability [1] is reported as 58.7%, the normalised viability [2] is reported as 42.1% and the normalised viability [3] is reported as 72.8%. For the same compound, the normalised viability [4] was 60.2%, the normalised viability [5] was 74% and the normalised viability [6] was 42.9%.

`CC[C@H](CO)Nc1nc(NCc2ccccc2)c2ncn(C(C)C)c2n1` [Roscovitine] (10000 nM) showed a normalised viability [7] of 61.9%, a normalised viability [8] of 80.8% and a normalised viability [9] of 96.6%. The normalised viability [10] was 63.4%, the normalised viability [11] was 75.6% and the normalised viability [12] was 85%.

For `C=CCN(/C=C1/C(=O)O[C@H](COC)[C@@]2(C)C1=C(O)C(=O)C1=C2[C@H](OC(C)=O)C[C@]2(C)C(=O)CC[C@@H]12)CC=C` [PX-866] (300 nM), the normalised viability [1] was 103%, the normalised viability [2] was 116% and the normalised viability [3] was 93%. It also gave a normalised viability [4] of 112%, a normalised viability [5] of 75.8% and a normalised viability [6] of 110%.

`CO[C@@]12[C@H](COC(N)=O)C3=C(C(=O)C(C)=C(N)C3=O)N1C[C@@H]1N[C@@H]12` [Mitomycin C] (300 nM) gave a normalised viability [1] of 98.7%, a normalised viability [2] of 105% and a normalised viability [3] of 86%. The normalised viability [4] was 110%, the normalised viability [5] was 83.7% and the normalised viability [6] was 102%.

`CO[C@@H]1[C@H](N(C)C(=O)c2ccccc2)C[C@H]2O[C@]1(C)n1c3ccccc3c3c4c(c5c6ccccc6n2c5c31)C(=O)NC4` [Midostaurin] (300 nM) gave a normalised viability [1] of 86.6%, a normalised viability [2] of 106% and a normalised viability [3] of 76%. The normalised viability [4] was 65.5%, the normalised viability [5] was 53.6% and the normalised viability [6] was 28.9%.

`CC(O)(CS(=O)(=O)c1ccc(F)cc1)C(=O)Nc1ccc(C#N)c(C(F)(F)F)c1` (stereo not given) [Bicalutamide] (300 nM) gave a normalised viability [1] of 95%, a normalised viability [2] of 107% and a normalised viability [3] of 93.6%. The normalised viability [4] was 110%, the normalised viability [5] was 55% and the normalised viability [6] was 108%.

`CC(=O)[C@]1(O)Cc2c(O)c3c(c(O)c2[C@@H](O[C@H]2C[C@H](N)[C@H](O)[C@H](C)O2)C1)C(=O)c1ccccc1C3=O` [Idarubicin] (30 nM) gave a normalised viability [1] of 89.9%, a normalised viability [2] of 40.7% and a normalised viability [3] of 50%. It also gave a normalised viability [4] of 101%, a normalised viability [5] of 83.6% and a normalised viability [6] of 31.1%.

Work on `Cn1cc(C2=C(c3cn(C4CCN(Cc5ccccn5)CC4)c4ccccc34)C(=O)NC2=O)c2ccccc21` [Enzastaurin] (300 nM) yielded a normalised viability [1] of 90.2%, a normalised viability [2] of 79.2% and a normalised viability [3] of 77.5%. The normalised viability [4] was 80.6%, the normalised viability [5] was 45.9% and the normalised viability [6] was 92.3%.

`CN(Cc1cnc2nc(N)nc(N)c2n1)c1ccc(C(=O)N[C@@H](CCC(=O)O)C(=O)O)cc1` [Methotrexate] (300 nM) was tested, and the normalised viability [1] was 68.7%, the normalised viability [2] was 66.8% and the normalised viability [3] was 110%. For the same compound, the normalised viability [4] was 95.2%, the normalised viability [5] was 69% and the normalised viability [6] was 48.6%.

For `C=CCn1c(=O)c2cnc(Nc3ccc(N4CCN(C)CC4)cc3)nc2n1-c1cccc(C(C)(C)O)n1` [MK1775] (300 nM), the normalised viability [1] was 66.6%, the normalised viability [2] was 45.3% and the normalised viability [3] was 68.7%. It also gave a normalised viability [4] of 60%, a normalised viability [5] of 49.3% and a normalised viability [6] of 62.9%.

Compound `COc1c2occc2cc2ccc(=O)oc12` [Methoxsalen] (10000 nM) has a normalised viability [7] of 61%, a normalised viability [8] of 53.6% and a normalised viability [9] of 71.6%. For the same compound, the normalised viability [10] was 28.5%, the normalised viability [11] was 128% and the normalised viability [12] was 49.2%.

`CCN(CC)CCCC(C)Nc1ccnc2cc(Cl)ccc12` (stereo not given) [Chloroquine] (990 nM) was tested, and the normalised viability [7] was 91.3%, the normalised viability [8] was 84.8% and the normalised viability [9] was 115%. For the same compound, the normalised viability [10] was 98.4%, the normalised viability [11] was 126% and the normalised viability [12] was 89.5%.

For `O=C(CCCCCCC(=O)Nc1ccccc1)NO` [Vorinostat] (1 nM), the normalised viability [13] was 83.4% and 95.8%, the normalised viability [14] was 91.5% and 104% and the normalised viability [15] was 97.8% and 94.4%. The normalised viability [16] was 89.8% and 101%, the normalised viability [17] was 94.7% and 100% and the normalised viability [18] was 100% and 106%. The normalised viability [19] was 90% and 100%, the normalised viability [20] was 89.7% and 91.5% and the normalised viability [21] was 94.4% and 117%. For the same compound, the normalised viability [22] was 102% and 89.7%, the normalised viability [23] was 89.6% and 94.1% and the normalised viability [24] was 108% and 97.3%. For the same compound, the normalised viability [25] was 109%, the normalised viability [26] was 101% and 100% and the normalised viability [27] was 106%. The normalised viability [28] was 84.8% and 99.5%, the normalised viability [29] was 103% and 96% and the normalised response [30] was 95.9%. The normalised response [31] was 93.1%, the normalised response [32] was 104% and the normalised response [33] was 94.1%. The normalised response [34] was 102%, the normalised response [35] was 91.1% and the normalised response [36] was 98.4%. The normalised response [37] was 102%, the normalised response [38] was 88% and the normalised response [39] was 92.1%. For the same compound, the normalised response [40] was 108%, the normalised response [41] was 99% and the normalised response [42] was 94.8%. The normalised response [43] was 97.5%, the normalised response [44] was 96% and the normalised response [45] was 98.3%. It also gave a normalised response [46] of 97.9%, a normalised response [47] of 104% and a normalised response [48] of 80.8%.
